Data taken from patent EP1345943B1, “INHIBITORS OF PAPILLOMA VIRUS” (BOEHRINGER INGELHEIM (CANADA) LTD., priority 2000, dated 2002).

Biological target: E1-E2-DNA complex (Human papillomavirus 11, UniProt P04015)
Experiment: E2-dependent E1 DNA binding assay (E1-E2 DNA assay)
Conditions: E1-E2 DNA assay of Example 11, HPV-11
Description: This particular assay determines the ability of a test compound to inhibit the activity (IC50) of HPV-11 DNA replication. More specifically, in the assay described herein, the inhibitory activity of the test compound is evaluated based on its ability to interfere with the E1-E2-DNA origin of replication interaction, thereby inhibiting initiation of viral DNA replication.
This assay was modeled on a similar assay for SV40 T Antigen described by McKay (J. Mol. Biol., 1981,145:471). A 400bp radiolabeled DNA probe, containing the -HPV-11 origin of replication (Chiang et al.., 1992, Proc. Natl.-Acad. Sci. USA 89:5799) was produced by pcr, using plasmid pBluescript™ SK encoding the origin (nucleotides 7886-61 of the HPV-11 genome in unique BAMH1 site) as template and primers flanking the origin. Radiolabel was incorporated as [33p]dCTP. Binding assay buffer consisted of: 20 mM Tris pH 7.6, 100 mM NaCI, 1 mM DTT, 1 mM EDTA.
Other reagents used were protein A-SPA beads (type II, Amersham) and K72 rabbit polyclonal antiserum, raised against a peptide corresponding to the C-terminal 14 amino acids of HPV-11 E1. Following the protocol from Amersham, one bottle of beads was mixed with 25 mL of binding assay buffer. For the assay, a saturating amount of K72 antiserum was added to the beads and the mixture was incubated for 1 h, washed with one volume of binding assay buffer, and then resuspended in the same volume of fresh binding assay buffer. Binding reactions contained 8 ng of E2, approximately 100-200 ng of purified E1, and 0.4 ng of radiolabeled probe in a total of 80 µL of binding assay buffer. After 1 h at room temperature, 25 µL of K72 antibody-SPA bead suspension was added to with the binding reaction and mixed. After an additional hour of incubation at room temperature, the reactions were centrifuged briefly to pellet the beads and the extent of complex formation was determined by scintillation counting on a Packard TopCount™. Typically, the signal for reactions containing E1 and E2 was 20-30 fold higher than the background observed when either E1, E2, or both was omitted.

Chain of E1-E2-DNA complex (P04015 whole entry, one chain of several): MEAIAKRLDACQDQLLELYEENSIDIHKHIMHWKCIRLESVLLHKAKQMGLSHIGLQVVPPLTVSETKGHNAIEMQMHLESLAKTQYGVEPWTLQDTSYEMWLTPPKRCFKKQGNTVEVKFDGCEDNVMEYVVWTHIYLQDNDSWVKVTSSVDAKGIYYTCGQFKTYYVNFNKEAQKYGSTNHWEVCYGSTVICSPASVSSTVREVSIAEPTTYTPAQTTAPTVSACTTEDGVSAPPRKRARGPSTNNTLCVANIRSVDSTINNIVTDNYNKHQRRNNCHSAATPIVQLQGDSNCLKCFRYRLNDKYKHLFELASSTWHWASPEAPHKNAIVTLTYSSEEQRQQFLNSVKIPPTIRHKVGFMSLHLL

Compared with `Cc1cc2c(cc1F)C(=O)C1(OC(c3ccc(Br)c(Br)c3)C(C(=O)Nc3ccc(N4CCOCC4)cc3)C1C(=O)O)C2=O` (single isomer, unassigned) [Compound A1015], `O=C(Nc1ccc(N2CCOCC2)cc1)C1C(c2ccc(Br)c(Br)c2)OC2(C(=O)c3ccccc3C2=O)C1C(=O)O` (centres unmarked) [10,001] is higher in IC50: less than 0.5 µM for the first, 0.5 to 5 µM for the second.

Compared with `Cc1cc2c(cc1F)C(=O)C1(OC(c3ccc(Br)c(Br)c3)C(C(=O)Nc3ccc(N4CCOCC4)cc3)C1C(=O)O)C2=O` (single isomer, unassigned) [Compound A1016], `Cc1cc2c(cc1F)C(=O)C13OC(c4ccc(Br)c(Br)c4)C(C(=O)Nc4ccc(N5CCOCC5)cc4)C1C(=O)OC23O` (single isomer, unassigned) [Compound B1008] is lower in IC50: 0.5 to 5 µM for the first, less than 0.5 µM for the second.

`Cc1ccc2c(c1)C(=O)C13OC(c4ccc(Br)c(Br)c4)C(C(=O)Nc4ccc(N5CCOCC5)cc4)C1C(=O)OC23O` (single isomer, unassigned) [Compound B1002] and `Cc1ccc2c(c1)C1(O)OC(=O)C3C(C(=O)Nc4ccc(N5CCOCC5)cc4)C(c4ccc(Br)c(Br)c4)OC31C2=O` (single isomer, unassigned) [Compound B1003] cannot be ordered by IC50: less than 0.5 µM for the first, less than 0.5 µM for the second.

`Cc1ccc2c(c1)C(=O)C13OC(c4ccc(Br)c(Br)c4)C(C(=O)NCCc4ccccc4Cl)C1C(=O)OC23O` (single isomer, unassigned) [Compound B1004] and `Cc1ccc2c(c1)C1(O)OC(=O)C3C(C(=O)NCCc4ccccc4Cl)C(c4ccc(Br)c(Br)c4)OC31C2=O` (single isomer, unassigned) [Compound B1005] fall in the same range of IC50: 5 to 50 µM for the first, 5 to 50 µM for the second.

First: Cc1ccc2c(c1)C(=O)C13OC(c4ccc(Br)c(Br)c4)C(C(=O)NCCc4ccccc4Cl)C1C(=O)OC23O (single isomer, unassigned) [Compound B1006]
Second: Cc1ccc2c(c1)C1(O)OC(=O)C3C(C(=O)NCCc4ccccc4Cl)C(c4ccc(Br)c(Br)c4)OC31C2=O (single isomer, unassigned) [Compound B1007]
The IC50 of the first is higher: 0.5 to 5 µM for the first, less than 0.5 µM for the second.

`CC(=O)c1ccc(NC(=O)C2C(c3ccc(Cl)c(Cl)c3)OC34C(=O)c5cc(C)sc5C3(O)OC(=O)C24)cc1` (single isomer, unassigned) [Compound D1001] and `CC(=O)NCc1ccc(NC(=O)C2C(c3ccc(Br)c(Br)c3)OC34C(=O)c5cc(C)sc5C3(O)OC(=O)C24)cc1` (single isomer, unassigned) [Compound D1004] cannot be ordered by IC50: less than 0.5 µM for the first, less than 0.5 µM for the second.

`Cc1cc2c(s1)C1(O)OC(=O)C3C(C(=O)Nc4ccc(N5CCOCC5)cc4)C(c4ccc(Br)c(Br)c4)OC31C2=O` (single isomer, unassigned) [Compound D1002] and `Cc1cc2c(s1)C1(O)OC(=O)C3C(C(=O)Nc4ccc(CNC(=O)OC(C)(C)C)cc4)C(c4ccc(Br)c(Br)c4)OC31C2=O` (single isomer, unassigned) [Compound D1003] cannot be ordered by IC50: less than 0.5 µM for the first, less than 0.5 µM for the second.

First: O=C(Nc1ccc2c(c1)OCO2)C1C(c2ccc(Cl)cc2)OC2(C(=O)c3ccccc3C2=O)C1C(=O)O (centres unmarked) [Compound 1001]
Second: O=C(Nc1ccc2c(c1)OCO2)C1C(c2ccc(I)cc2)OC2(C(=O)c3ccccc3C2=O)C1C(=O)O (centres unmarked) [Compound 1039]
The IC50 of the first is higher: 5 to 50 µM for the first, 0.5 to 5 µM for the second.

First: O=C(Nc1ccc2c(c1)OCO2)C1C(c2ccc(Cl)c(Cl)c2)OC2(C(=O)c3ccccc3C2=O)C1C(=O)O (centres unmarked) [Compound 1002]
Second: O=C(Nc1ccc2c(c1)OCO2)C1C(c2ccc(Cl)c(F)c2)OC2(C(=O)c3ccccc3C2=O)C1C(=O)O (centres unmarked) [Compound 1029]
The IC50 of the first is lower: less than 0.5 µM for the first, 0.5 to 5 µM for the second. The first is the more potent here.

`O=C(Nc1ccc(F)cc1)C1C(c2ccc(Cl)cc2)OC2(C(=O)c3ccccc3C2=O)C1C(=O)O` (centres unmarked) [Compound 1003] and `Cc1ccc(NC(=O)C2C(c3ccc(Cl)cc3)OC3(C(=O)c4ccccc4C3=O)C2C(=O)O)cc1` (centres unmarked) [Compound 1007] fall in the same range of IC50: 5 to 50 µM for the first, 5 to 50 µM for the second.

`COc1ccc(NC(=O)C2C(c3ccc(Cl)cc3)OC3(C(=O)c4ccccc4C3=O)C2C(=O)O)cc1OC` (centres unmarked) [Compound 1004] and `Cc1cccc(NC(=O)C2C(c3ccc(Cl)cc3)OC3(C(=O)c4ccccc4C3=O)C2C(=O)O)c1` (centres unmarked) [Compound 1012] fall in the same range of IC50: 5 to 50 µM for the first, 5 to 50 µM for the second.

First: CC(=O)c1ccc(NC(=O)C2C(c3ccc(Cl)cc3)OC3(C(=O)c4ccccc4C3=O)C2C(=O)O)cc1 (centres unmarked) [Compound 1005]
Second: CC(=O)c1ccc(NC(=O)C2C(c3cccc(Cl)c3)OC3(C(=O)c4ccccc4C3=O)C2C(=O)O)cc1 (centres unmarked) [Compound 1032]
The IC50 of the first is higher: 5 to 50 µM for the first, 0.5 to 5 µM for the second. The second is the more potent here.

`O=C(Nc1cccc(Cl)c1)C1C(c2ccc(Cl)cc2)OC2(C(=O)c3ccccc3C2=O)C1C(=O)O` (centres unmarked) [Compound 1006] and `O=C(Nc1ccc(Cl)cc1)C1C(c2ccc(Cl)cc2)OC2(C(=O)c3ccccc3C2=O)C1C(=O)O` (centres unmarked) [Compound 1010] fall in the same range of IC50: 5 to 50 µM for the first, 5 to 50 µM for the second.

`CC(C)c1ccc(C2OC3(C(=O)c4ccccc4C3=O)C(C(=O)O)C2C(=O)Nc2ccc3c(c2)OCO3)cc1` (centres unmarked) [Compound 1008] and `O=C(Nc1ccc2c(c1)OCO2)C1C(c2ccc(C(F)(F)F)cc2)OC2(C(=O)c3ccccc3C2=O)C1C(=O)O` (centres unmarked) [Compound 1016] fall in the same range of IC50: 5 to 50 µM for the first, 5 to 50 µM for the second.

`O=C(Nc1ccc(F)cc1F)C1C(c2ccc(Cl)cc2)OC2(C(=O)c3ccccc3C2=O)C1C(=O)O` (centres unmarked) [Compound 1009] and `O=C(Nc1ccccc1)C1C(c2ccc(Cl)cc2)OC2(C(=O)c3ccccc3C2=O)C1C(=O)O` (centres unmarked) [Compound 1011] fall in the same range of IC50: 5 to 50 µM for the first, 5 to 50 µM for the second.

`O=C(Nc1ccc2c(c1)CCC2)C1C(c2ccc(Cl)cc2)OC2(C(=O)c3ccccc3C2=O)C1C(=O)O` (centres unmarked) [Compound 1013] and `O=C(Nc1ccc(C(F)(F)F)cc1)C1C(c2ccc(Cl)cc2)OC2(C(=O)c3ccccc3C2=O)C1C(=O)O` (centres unmarked) [Compound 1014] fall in the same range of IC50: 5 to 50 µM for the first, 5 to 50 µM for the second.

First: O=C(Nc1ccc2c(c1)OCO2)C1C(c2cccc(Cl)c2)OC2(C(=O)c3ccccc3C2=O)C1C(=O)O (centres unmarked) [Compound 1015]
Second: Cc1cccc(C2OC3(C(=O)c4ccccc4C3=O)C(C(=O)O)C2C(=O)Nc2ccc3c(c2)OCO3)c1 (centres unmarked) [Compound 1018]
The IC50 of the first is lower: 0.5 to 5 µM for the first, 5 to 50 µM for the second. The first is the more potent here.

First: COC(=O)C1C(C(=O)Nc2ccc3c(c2)OCO3)C(c2ccc(Cl)cc2)OC12C(=O)c1ccccc1C2=O (centres unmarked) [Compound 1017]
Second: O=C(Nc1ccc2c(c1)OCO2)C1C(c2ccc(F)c(Cl)c2)OC2(C(=O)c3ccccc3C2=O)C1C(=O)O (centres unmarked) [Compound 1030]
The IC50 of the first is higher: 5 to 50 µM for the first, 0.5 to 5 µM for the second. The second is the more potent here.

First: O=C(Nc1ccc2c(c1)OCO2)C1C(c2ccc(Cl)cc2)OC2(C(=O)c3cccc(F)c3C2=O)C1C(=O)O (centres unmarked) [Compound 1019]
Second: Cc1cccc2c1C(=O)C1(OC(c3ccc(Cl)c(Cl)c3)C(C(=O)Nc3ccc4c(c3)OCO4)C1C(=O)O)C2=O (centres unmarked) [Compound 1041]
The IC50 of the first is higher: 5 to 50 µM for the first, 0.5 to 5 µM for the second. The second is the more potent here.

First: O=C(Nc1ccc2c(c1)OCO2)C1C(c2cc(Cl)cc(Cl)c2)OC2(C(=O)c3ccccc3C2=O)C1C(=O)O (centres unmarked) [Compound 1020]
Second: Cc1ccc(C2OC3(C(=O)c4ccccc4C3=O)C(C(=O)O)C2C(=O)Nc2ccc3c(c2)OCO3)cc1C (centres unmarked) [Compound 1024]
The IC50 of the first is higher: 5 to 50 µM for the first, 0.5 to 5 µM for the second. The second is the more potent here.

`CC(=O)c1ccc(NC(=O)C2C(c3ccc(Cl)c(Cl)c3)OC3(C(=O)c4ccccc4C3=O)C2C(=O)O)cc1` (centres unmarked) [Compound 1021] and `CC(=O)Nc1ccc(NC(=O)C2C(c3ccc(Cl)c(Cl)c3)OC3(C(=O)c4ccccc4C3=O)C2C(=O)O)cc1` (centres unmarked) [Compound 1035] cannot be ordered by IC50: less than 0.5 µM for the first, less than 0.5 µM for the second.

`CC(C)(C)c1ccc(NC(=O)C2C(c3ccc(Cl)c(Cl)c3)OC3(C(=O)c4ccccc4C3=O)C2C(=O)O)cc1` (centres unmarked) [Compound 1025] and `CSc1ccc(NC(=O)C2C(c3ccc(Cl)c(Cl)c3)OC3(C(=O)c4ccccc4C3=O)C2C(=O)O)cc1` (centres unmarked) [Compound 1033] fall in the same range of IC50: 0.5 to 5 µM for the first, 0.5 to 5 µM for the second.

First: Cc1ccc2nc(-c3ccc(NC(=O)C4C(c5ccc(Cl)c(Cl)c5)OC5(C(=O)c6ccccc6C5=O)C4C(=O)O)cc3)sc2c1 (centres unmarked) [Compound 1028]
Second: O=C(Nc1cc2ccccc2cn1)C1C(c2ccc(Cl)c(Cl)c2)OC2(C(=O)c3ccccc3C2=O)C1C(=O)O (centres unmarked) [Compound 1040]
The IC50 of the first is lower: less than 0.5 µM for the first, 0.5 to 5 µM for the second. The first is the more potent here.

`O=C(Nc1ccc2c(c1)OCO2)C1C(c2cccc(C(F)(F)F)c2)OC2(C(=O)c3ccccc3C2=O)C1C(=O)O` (centres unmarked) [Compound 1031] and `Cc1cccc2c1C(=O)C1(OC(c3ccc(Cl)c(Cl)c3)C(C(=O)Nc3ccc4c(c3)OCO4)C1C(=O)O)C2=O` (centres unmarked) [Compound 1042] fall in the same range of IC50: 0.5 to 5 µM for the first, 0.5 to 5 µM for the second.

First: O=C(Nc1ccc(N2CCOCC2)cc1)C1C(c2ccc(Cl)c(Cl)c2)OC2(C(=O)c3ccccc3C2=O)C1C(=O)O (centres unmarked) [Compound 1034]
Second: O=C(NN1CCOCC1)C1C(c2ccc(Cl)c(Cl)c2)OC2(C(=O)c3ccccc3C2=O)C1C(=O)O (centres unmarked) [Compound 1043]
The IC50 of the first is lower: less than 0.5 µM for the first, 0.5 to 5 µM for the second. The first is the more potent here.

`CC(C)NC(=O)C1C(c2ccc(Cl)c(Cl)c2)OC2(C(=O)c3ccccc3C2=O)C1C(=O)O` (centres unmarked) [Compound 1036] and `Cc1ccc2c(c1)C(=O)C1(OC(c3ccc(Cl)c(Cl)c3)C(C(=O)Nc3ccc4c(c3)OCO4)C1C(=O)O)C2=O` (centres unmarked) [Compound 1037] fall in the same range of IC50: 0.5 to 5 µM for the first, 0.5 to 5 µM for the second.

`CC(=O)c1ccc(NC(=O)C2C(c3cccc(Cl)c3)OC3(C(=O)c4ccccc4C3=O)C2C(=O)O)cc1` (centres unmarked) [Compound 1044] gave an IC50 of 5 to 50 µM.
